Measured values as given in patent US20110183980A1, “O-BENZYL NICOTINAMIDE ANALOGS AS MGLUR5 POSITIVE ALLOSTERIC MODULATORS” (priority 2009, published 2011).
pEC50: −log10 of the molar value.

target: T1, rat mGluR5 (Rattus norvegicus, UniProt P31424); assay: Potentiation of glutamate response, Ca2+ fluorescence (FDSS) in HEK cells transfected with rat mGluR5; format: cell-based; conditions: Table 1; potentiation of mGluR5 response to glutamate; read-out: EC50
T1 construct: expressed in transfected cells; host or cells: human embryonic kidney (HEK) cells
T1 sequence (P31424 21-1203): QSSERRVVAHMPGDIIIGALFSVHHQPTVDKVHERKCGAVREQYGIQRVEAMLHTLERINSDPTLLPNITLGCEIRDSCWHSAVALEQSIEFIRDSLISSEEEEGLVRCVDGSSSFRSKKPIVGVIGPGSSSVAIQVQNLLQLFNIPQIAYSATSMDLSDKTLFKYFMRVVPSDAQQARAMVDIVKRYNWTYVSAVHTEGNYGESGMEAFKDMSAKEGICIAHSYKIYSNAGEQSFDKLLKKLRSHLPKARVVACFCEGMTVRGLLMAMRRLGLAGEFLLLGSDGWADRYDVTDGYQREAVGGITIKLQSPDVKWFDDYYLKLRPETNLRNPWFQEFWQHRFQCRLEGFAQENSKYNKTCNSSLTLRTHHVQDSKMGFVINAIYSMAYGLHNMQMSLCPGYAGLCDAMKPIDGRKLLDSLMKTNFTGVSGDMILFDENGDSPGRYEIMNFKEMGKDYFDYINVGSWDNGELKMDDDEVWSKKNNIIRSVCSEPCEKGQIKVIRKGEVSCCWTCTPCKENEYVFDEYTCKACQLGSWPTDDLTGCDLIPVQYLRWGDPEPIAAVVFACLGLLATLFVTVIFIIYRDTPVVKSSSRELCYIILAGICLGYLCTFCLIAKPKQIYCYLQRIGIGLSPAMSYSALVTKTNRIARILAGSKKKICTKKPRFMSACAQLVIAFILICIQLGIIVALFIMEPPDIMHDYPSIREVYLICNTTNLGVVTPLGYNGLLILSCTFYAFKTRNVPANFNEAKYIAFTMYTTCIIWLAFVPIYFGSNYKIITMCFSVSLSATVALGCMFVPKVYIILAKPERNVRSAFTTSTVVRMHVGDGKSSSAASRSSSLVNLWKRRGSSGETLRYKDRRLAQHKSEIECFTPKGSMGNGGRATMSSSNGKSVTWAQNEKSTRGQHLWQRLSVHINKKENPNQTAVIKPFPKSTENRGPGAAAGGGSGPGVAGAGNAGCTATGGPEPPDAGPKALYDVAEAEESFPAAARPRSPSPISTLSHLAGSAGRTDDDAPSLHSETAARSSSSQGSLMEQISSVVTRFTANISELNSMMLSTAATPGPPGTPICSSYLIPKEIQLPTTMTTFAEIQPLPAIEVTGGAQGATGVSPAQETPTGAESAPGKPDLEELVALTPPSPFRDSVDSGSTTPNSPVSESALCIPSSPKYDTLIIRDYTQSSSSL
Method: Human embryonic kidney (HEK) cells transfected with rat mGluR5 were plated in clear bottom assay plates for assay in a Functional Drug Screening System (FDSS). The cells were loaded with a Ca^2+-sensitive fluorescent dye (e.g., Fluo-4), and the plates were washed and placed in the FDSS instrument. After establishment of a fluorescence baseline for twelve seconds, the compounds of the present invention were added to the cells, and the response in cells was measured. Five minutes later, an mGluR5 agonist (e.g., glutamate, 3,5-dihydroxyphenylglycine, or quisqualate) was added to the cells, and the response of the cells was measured. Potentiation of the agonist response of mGluR5 by the compounds in the present invention was observed as an increase in response to non-maximal concentrations of agonist (here, glutamate) in the presence of compound compared to the response to agonist in the absence of compound.
The above described assay operated in two modes. In the first mode, a range of concentrations of the present compounds were added to cells, followed by a single fixed concentration of agonist. If a compound acted as a potentiator, an EC50 value for potentiation and a maximum extent of potentiation by the compound at this concentration of agonist was determined by non-linear curve fitting. In the second mode, several fixed concentrations of the present compounds were added to various wells on a plate, followed by a range of concentrations of agonist for each concentration of present compound; the EC50 values for the agonist at each concentration of compound were determined by non-linear curve fitting. A decrease in the EC50 value of the agonist with increasing concentrations of the present compounds (a leftward shift of the agonist concentration-response curve) is an indication of the degree of mGluR5 potentiation at a given concentration of the present compound. An increase in the EC50 value of the agonist with increasing concentrations of the present compounds (a rightward shift of the agonist concentration-response curve) is an indication of the degree of mGluR5 antagonism at a given concentration of the present compound. The second mode also indicates whether the present compounds also affect the maximum response to mGluR5 to agonists.

| pEC50 | Structure (SMILES) |
| --- | --- |
| 5.80 | Cc1csc(NC(=O)c2ccc(OCc3ccccc3)nc2)n1 [Example 1.2a.20] |
| 5.41 | O=C(NCC1CCOCC1)c1ccc(OCc2ccccc2)nc1 [Example 1.2a.21] |
| 6.77 | C[C@@H](NC(=O)c1ccc(OCc2ccccc2)nc1)C1CC1 [Example 1.2a.22] |
| 5.41 | O=C(NC1CCOCC1)c1ccc(OCc2ccccc2)nc1 [Example 1.2a.23] |
| 6.85 | O=C(NC1CCCCC1)c1ccc(OCc2ccccc2)nc1 [Example 1.2a.24] |
| 5.80 | Cc1nc(OCc2ccccc2)ccc1C(=O)NCC1CC1 [Example 1.2b.2] |
| 6.40 | Cc1nc(OCc2ccccc2)ccc1C(=O)NCCC(C)(C)C [Example 1.2b.3] |
| 7.07 | CC(C)(C)CCNC(=O)c1ccc(OCc2cccc(F)c2)nc1 [Example 1.2c.3] |
| 6.00 | CC(C)NC(=O)c1ccc(OCc2cccc(F)c2)nc1 [Example 1.2c.4] |
| 6.40 | CC(C)(C)NC(=O)c1ccc(OCc2cccc(F)c2)nc1 [Example 1.2c.5] |
| 7.40 | O=C(NC1CCCCC1)c1ccc(OCc2cccc(F)c2)nc1 [Example 1.2c.6] |
| 5.77 | O=C(c1ccc(OCc2cccc(F)c2)nc1)N1CCOCC1 [Example 1.2c.7] |
| 5.57 | O=C(NCc1ccccn1)c1ccc(OCc2cccc(F)c2)nc1 [Example 1.2c.8] |
| 6.68 | O=C(Nc1ccccc1F)c1ccc(OCc2cccc(F)c2)nc1 [Example 1.2c.9] |
| 6.34 | O=C(Nc1cccc(F)c1)c1ccc(OCc2cccc(F)c2)nc1 [Example 1.2c.10] |
| 6.59 | O=C(Nc1ccc(F)cc1)c1ccc(OCc2cccc(F)c2)nc1 [Example 1.2c.11] |
| 6.24 | O=C(Nc1ccc(Cl)cc1F)c1ccc(OCc2cccc(F)c2)nc1 [Example 1.2c.12] |
| 6.46 | O=C(Nc1ccc(Cl)cn1)c1ccc(OCc2cccc(F)c2)nc1 [Example 1.2c.13] |
| 6.04 | O=C(NCC1CC1)c1ccc(OCc2cccc(F)c2)nc1 [Example 1.2c.14] |
| 7.03 | C[C@@H](NC(=O)c1ccc(OCc2cccc(F)c2)nc1)C1CC1 [Example 1.2c.15] |
| 6.64 | O=C(NCC1CCCCC1)c1ccc(OCc2cccc(F)c2)nc1 [Example 1.2c.16] |

| pEC50 | Structure (SMILES) |
| --- | --- |
| 5.96 | O=C(NCC1CCOCC1)c1ccc(OCc2cccc(F)c2)nc1 [Example 1.2c.17] |
| 6.72 | C[C@@H](NC(=O)c1ccc(OCc2cccc(F)c2)nc1)C1CCCCC1 [Example 1.2c.18] |
| 6.92 | O=C(NC1CCC1)c1ccc(OCc2cccc(F)c2)nc1 [Example 1.2c.19] |
| 5.80 | O=C(NC1CCOCC1)c1ccc(OCc2cccc(F)c2)nc1 [Example 1.2c.20] |
| 7.12 | O=C(Nc1ccc(F)cc1F)c1ccc(OCc2cccc(F)c2)nc1 [Example 1.2c.21] |
| 5.89 | O=C(Nc1ccccn1)c1ccc(OCc2ccc(F)cc2)nc1 [Example 1.2d.1] |
| 6.68 | O=C(Nc1ccc(F)cc1F)c1ccc(OCc2ccc(F)cc2)nc1 [Example 1.2d.2] |
| 6.29 | O=C(Nc1ccc(F)cn1)c1ccc(OCc2ccc(F)cc2)nc1 [Example 1.2d.3] |
| 6.16 | CC(C)(C)CCNC(=O)c1ccc(OCc2ccc(F)cc2)nc1 [Example 1.2d.4] |
| 5.96 | CC(C)(C)CCNC(=O)c1ccc(OCc2cc(F)cc(F)c2)nc1 [Example 1.2e.1] |
| 6.52 | O=C(Nc1ccccn1)c1ccc(OCc2ccccc2F)nc1 [Example 1.2f.1] |
| 6.57 | O=C(NC1CCC1)c1ccc(OCc2ccccc2F)nc1 [Example 1.2f.2] |
| 6.96 | O=C(NC1CCCCC1)c1ccc(OCc2ccccc2F)nc1 [Example 1.2f.3] |
| 6.62 | Cc1cccc(COc2ccc(C(=O)Nc3ccccn3)cn2)c1 [Example 1.2g.1] |
| 6.92 | Cc1cccc(COc2ccc(C(=O)NC3CCC3)cn2)c1 [Example 1.2g.2] |
| 7.00 | Cc1cccc(COc2ccc(C(=O)NC3CCCCC3)cn2)c1 [Example 1.2g.3] |
| 5.54 | O=C(Nc1ccccn1)c1ccc(OCc2cccnc2)nc1 [Example 1.2h.1] |
| ≤ 5.00 | O=C(Nc1ccccn1)c1ccc(OCc2ccncc2)nc1 [Example 1.2i.2] |
| 5.92 | O=C(NC1CCCCC1)c1ccc(OCc2ccncc2)nc1 [Example 1.2i.3] |
| 6.09 | O=C(Nc1ccc(F)cc1F)c1ccc(OCc2ccncc2)nc1 [Example 1.2i.4] |
| 5.32 | C[C@@H](NC(=O)c1ccc(OCc2ccncc2)nc1)C1CC1 [Example 1.2i.5] |

| pEC50 | Structure (SMILES) |
| --- | --- |
| 5.62 | CCCCOc1ccc(C(=O)NC2CCCCC2)cn1 [Example 1.2j.2] |
| ≤ 5.00 | CCCCOc1ccc(C(=O)NC(C)(C)C)cn1 [Example 1.2j.3] |
| 5.82 | CCCCOc1ccc(C(=O)Nc2ccc(F)cn2)cn1 [Example 1.2j.4] |
| 6.19 | CCCCOc1ccc(C(=O)Nc2ccccc2)cn1 [Example 1.2j.5] |
| 5.82 | CCCCOc1ccc(C(=O)N[C@H](C)C2CCCCC2)cn1 [Example 1.2j.6] |
| 5.66 | CCCCOc1ccc(C(=O)NC2CCCCCC2)cn1 [Example 1.2j.7] |
| 6.06 | Cc1nc(OCc2cccc(F)c2)ccc1C(=O)N[C@H](C)C1CCCCC1 [Example 1.2m.2] |
| 6.21 | Cc1nc(OCc2cccc(F)c2)ccc1C(=O)NC1CCCCC1 [Example 1.2m.3] |
| 5.47 | Cc1nc(OCc2ccncc2)ccc1C(=O)NCCC(C)(C)C [Example 1.2n.1] |
| 6.10 | Cc1nc(OCc2ccncc2)ccc1C(=O)N[C@H](C)C1CCCCC1 [Example 1.2n.2] |
| 6.15 | O=C(NC1CCCCC1)c1ccc(OCC2CCCC2)nc1 [Example 2.3a.4] |
| 6.12 | O=C(NC1CCCCC1)c1ccc(OCc2ccc(F)cc2)nc1 [Example 2.3a.6] |
| 7.02 | N#Cc1cccc(COc2ccc(C(=O)NC3CCCCC3)cn2)c1 [Example 2.3a.7] |
| 6.92 | O=C(NC1CCCCC1)c1ccc(OCc2ccsc2)nc1 [Example 2.3a.8] |
| 5.51 | O=C(NC1CCCCC1)c1ccc(OCc2nccs2)nc1 [Example 2.3a.9] |
| 5.74 | Cc1ccc(COc2ccc(C(=O)NC3CCC3)cn2)cc1 [Example 2.3b.1] |
| 5.92 | O=C(NC1CCC1)c1ccc(OCc2ccc(F)cc2)nc1 [Example 2.3b.2] |
| 5.54 | CC(C)(C)CCNC(=O)c1ccc(OCc2cccnc2)nc1 [Example 2.3c.1] |
| 6.38 | CC(C)(C)CCNC(=O)c1ccc(OCc2ccncc2)nc1 [Example 2.3c.2] |
